Columns and labels:
[1] = system: HeLa KRas G12C cells; experiment: Cellular growth inhibition assay (CTG), HeLa KRas G12C cells; assay type: cell-based; settings: Homo sapiens, CellTiter-Glo 2.0, day-5
Description: Cells were seeded in Poly-D-lysine-treated 384-well white plates, with 25 μL cell suspension at 250 cells/well for continuous treatments, and 1000 cells/well for washout treatments. Plates were spun at 300×g for 3 minutes, and cells were cultured at 37° C. with 5% CO2 in a humidified tissue culture incubator.
After 24 hours, the test compounds were diluted with cell culture medium in 96 deep well plates. DMSO was used as a negative control. A 25 μL aliquot of compound-containing medium was added in each well, at a final top concentration of 10 μM or 30 μM test compound, with 3-fold dilutions. For washout assays, after 4 hours, cell medium with compound was removed, and the cells were washed with 75p L fresh medium. Plates were then spun at 300×g for 3 minutes and replaced with 50 μL fresh medium in each well. Plates were then spun at 300×g for 3 minutes again and cultured at 37° C. with 5% CO2.
At day-0 and day-5 of compound treatments, cell viability was quantified with CellTiter-Glo 2.0 (Promega). After equilibrating cell plates at room temperature for 30 minutes, 25 μL CellTiter-Glo 2.0 reagent was dispensed into each well (on top of 50 μL of cell culture). Plates were mixed on a shaker for 2 minutes at 500 rpm, followed by a 10-minute incubation at room temperature. Luminescence readings were measured with an EnVision Plate Reader. Data was normalized to DMSO treated day-0 cell wells. A four-parameter non-linear regression curve fit was applied to dose-response data in Prism to determine the half maximal growth inhibitory concentration (GI50) of each compound.

[2] = target: T1, GSPT1 (Homo sapiens, UniProt P15170+Q96SW2); experiment: GSPT1 HiBit degradation assay; assay type: cell-based; settings: HEK293 LgBiT cells expressing GSPT1_HiBiT, luminescence after 6 hours
T1 construct: host or cells: HEK293 LgBiT cell line
Outline: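 HEK293 cells stably expressing LgBiT and GSPT1-HiBiT, seeded 18-24 h before dosing, were treated with titrated compound plus endurazine (0.5× final) at 37 °C. Luminescence loss after 6 h reflects GSPT1 degradation; DC50 is the concentration giving 50% degradation.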

T1 sequence (P15170 whole entry): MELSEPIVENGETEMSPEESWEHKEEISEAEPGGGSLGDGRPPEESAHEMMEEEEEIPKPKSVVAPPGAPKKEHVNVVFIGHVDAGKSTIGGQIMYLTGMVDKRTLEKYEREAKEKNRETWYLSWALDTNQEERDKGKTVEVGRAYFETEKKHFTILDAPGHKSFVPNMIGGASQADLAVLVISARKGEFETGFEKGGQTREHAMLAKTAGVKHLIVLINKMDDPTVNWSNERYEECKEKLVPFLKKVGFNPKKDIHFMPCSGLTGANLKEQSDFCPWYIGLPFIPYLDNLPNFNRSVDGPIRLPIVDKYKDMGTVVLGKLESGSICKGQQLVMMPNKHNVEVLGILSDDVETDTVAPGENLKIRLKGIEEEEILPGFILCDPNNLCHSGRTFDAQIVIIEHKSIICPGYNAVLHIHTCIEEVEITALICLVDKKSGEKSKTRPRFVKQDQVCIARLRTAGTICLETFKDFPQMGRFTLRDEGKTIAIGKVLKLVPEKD
T1 sequence (Q96SW2 whole entry): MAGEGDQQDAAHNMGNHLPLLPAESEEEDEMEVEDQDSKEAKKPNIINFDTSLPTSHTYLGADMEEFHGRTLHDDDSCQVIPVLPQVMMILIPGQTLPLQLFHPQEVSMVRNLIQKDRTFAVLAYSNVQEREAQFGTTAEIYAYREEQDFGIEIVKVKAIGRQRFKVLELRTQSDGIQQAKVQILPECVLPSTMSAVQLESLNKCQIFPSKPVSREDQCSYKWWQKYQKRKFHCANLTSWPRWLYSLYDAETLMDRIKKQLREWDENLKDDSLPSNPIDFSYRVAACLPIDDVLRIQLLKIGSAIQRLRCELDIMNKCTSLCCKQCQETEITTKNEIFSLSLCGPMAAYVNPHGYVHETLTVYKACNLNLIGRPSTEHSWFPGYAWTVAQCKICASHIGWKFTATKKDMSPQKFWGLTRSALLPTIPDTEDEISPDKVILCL
T1 sequence (Q16531 whole entry partner): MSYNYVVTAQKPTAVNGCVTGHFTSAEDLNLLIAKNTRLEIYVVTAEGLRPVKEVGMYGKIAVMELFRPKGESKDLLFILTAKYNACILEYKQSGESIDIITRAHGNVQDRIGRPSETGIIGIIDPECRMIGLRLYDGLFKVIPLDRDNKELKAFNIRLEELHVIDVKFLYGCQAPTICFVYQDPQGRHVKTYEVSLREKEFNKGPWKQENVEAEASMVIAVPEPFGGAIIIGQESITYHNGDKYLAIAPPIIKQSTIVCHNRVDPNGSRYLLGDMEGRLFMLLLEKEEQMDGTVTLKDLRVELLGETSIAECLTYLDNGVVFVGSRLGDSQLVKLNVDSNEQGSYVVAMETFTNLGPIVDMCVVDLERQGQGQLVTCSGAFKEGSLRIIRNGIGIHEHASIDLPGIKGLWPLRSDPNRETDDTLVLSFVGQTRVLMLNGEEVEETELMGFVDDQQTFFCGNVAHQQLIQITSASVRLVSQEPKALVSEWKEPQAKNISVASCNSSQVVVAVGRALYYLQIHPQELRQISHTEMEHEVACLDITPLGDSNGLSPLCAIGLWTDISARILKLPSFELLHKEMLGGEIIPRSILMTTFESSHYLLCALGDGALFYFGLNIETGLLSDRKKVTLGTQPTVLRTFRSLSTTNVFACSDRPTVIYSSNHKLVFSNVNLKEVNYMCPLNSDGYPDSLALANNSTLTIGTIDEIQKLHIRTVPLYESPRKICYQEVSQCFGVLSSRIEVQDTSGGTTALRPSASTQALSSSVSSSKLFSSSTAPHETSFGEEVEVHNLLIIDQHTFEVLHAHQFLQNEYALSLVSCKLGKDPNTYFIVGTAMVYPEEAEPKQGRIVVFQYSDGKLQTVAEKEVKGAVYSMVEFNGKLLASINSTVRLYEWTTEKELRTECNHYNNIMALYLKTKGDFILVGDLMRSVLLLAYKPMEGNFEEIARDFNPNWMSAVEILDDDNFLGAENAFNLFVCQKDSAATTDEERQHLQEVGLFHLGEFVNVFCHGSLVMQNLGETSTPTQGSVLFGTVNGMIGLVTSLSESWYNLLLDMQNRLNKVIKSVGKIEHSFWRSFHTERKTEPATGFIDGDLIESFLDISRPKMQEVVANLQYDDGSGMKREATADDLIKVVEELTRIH

Row | Compound | GI50 [1] [µM] | DC50 ([2]; Table 3) [µM] | DC50 ([2]; Table 3A) [µM]
1 | C=C(F)C(=O)N1CCN(c2nc(OC[C@@H]3CCCN3CCOCCOCCOCCOCCOCCOCCOCCOCCOc3cc(Cl)cc(NC(=O)NCc4ccc5c(c4)CN(C4CCC(=O)NC4=O)C5=O)c3)nc3c2CCN(c2cccc4cccc(Cl)c24)C3)C[C@@H]1CC#N (stereo partly drawn) [Compound I-9, 1-[3-chloro-5-[2-[2-[2-[2-[2-[2-[2-[2-[2-[(2S)-2-[[7-(8-chloro-1-naphthyl)-4-[(3S)-3-(cyanomethyl)-4-(2-fluoroprop-2-enoyl)piperazin-1-yl]-6,8-dihydro-5H-pyrido[3,4-d]pyrimidin-2-yl]oxymethyl]pyrrolidin-1-yl]ethoxy]ethoxy]ethoxy]ethoxy]ethoxy]ethoxy]ethoxy]ethoxy]ethoxy]phenyl]-3-[[2-(2,6-dioxo-3-piperidyl)-1-oxo-isoindolin-5-yl]methyl]urea] | > 10 | > 10 | –
2 | C=C(F)C(=O)N1CCN(c2nc(OC[C@@H]3CCCN3CCOCCOCCOCCOCCOCCOCCOCCOCCOCCCCCc3cc(Cl)cc(NC(=O)NCc4ccc5c(c4)CN(C4CCC(=O)NC4=O)C5=O)c3)nc3c2CCN(c2cccc4cccc(Cl)c24)C3)C[C@@H]1CC#N (some centres unmarked) [Compound I-44] | 1 to 3 | 0.25 to 5 | –
3 | C=C(F)C(=O)N1CCN(c2nc(OC[C@@H]3CCCN3CCCOCCOCCOCCOCCOCCOCCOCCOCCOCCCCCc3ccc(Cl)cc3NC(=O)NCc3ccc4c(c3)CN(C3CCC(=O)NC3=O)C4=O)nc3c2CCN(c2cccc4cccc(Cl)c24)C3)C[C@@H]1CC#N (some centres unmarked) [Compound I-134] | 3 to 10 | – | 0.25 to 5
4 | C=C(F)C(=O)N1CCN(c2nc(OC[C@@H]3CCCN3CCCOCCOCCOCCOCCOCCOCCOCCOCCOCCOCCOCCCCCc3ccc(Cl)cc3NC(=O)NCc3ccc4c(c3)CN(C3CCC(=O)NC3=O)C4=O)nc3c2CCN(c2cccc4cccc(Cl)c24)C3)C[C@@H]1CC#N (some centres unmarked) [Compound I-138] | 3 to 10 | – | 0.25 to 5
5 | C=C(F)C(=O)N1CCN(c2nc(OC[C@@H]3CCCN3CCOCCOCCOCCOCCOCCOCCOCCOCCOCCOCCOCCOCCOCCOCCCCCCCCc3cc(Cl)cc(NC(=O)NCc4ccc5c(c4)CN(C4CCC(=O)NC4=O)C5=O)c3)nc3c2CCN(c2cccc4cccc(Cl)c24)C3)C[C@@H]1CC#N (some centres unmarked) [Compound I-47] | < 1 | < 0.25 | –
6 | C=C(F)C(=O)N1CCN(c2nc(OC[C@@H]3CCCN3CCOCCOCCOCCOCCOCCOCCOCCOCCOCCOCCc3cc(Cl)cc(NC(=O)NCc4ccc5c(c4)CN(C4CCC(=O)NC4=O)C5=O)c3)nc3c2CCN(c2cccc4cccc(Cl)c24)C3)C[C@@H]1CC#N (stereo partly drawn) [Compound I-12, 1-[3-chloro-5-[2-[2-[2-[2-[2-[2-[2-[2-[2-[2-[2-[(2S)-2-[[7-(8-chloro-1-naphthyl)-4-[(3S)-3-(cyanomethyl)-4-(2-fluoroprop-2-enoyl)piperazin-1-yl]-6,8-dihydro-5H-pyrido[3,4-d]pyrimidin-2-yl]oxymethyl]pyrrolidin-1-yl]ethoxy]ethoxy]ethoxy]ethoxy]ethoxy]ethoxy]ethoxy]ethoxy]ethoxy]ethoxy]ethyl]phenyl]-3-[[2-(2,6-dioxo-3-piperidyl)-1-oxo-isoindolin-5-yl]methyl]urea] | 3 to 10 | 5 to 10 | –
7 | C=C(F)C(=O)N1CCN(c2nc(OC[C@H]3CCCN3CCOCCOCCOCCOCCOCCOCCOCCOCCOCCOCCCCCCCCc3cc(Cl)cc(NC(=O)NCc4ccc5c(c4)CN(C4CCC(=O)NC4=O)C5=O)c3)nc3c2CCN(c2cccc4cccc(Cl)c24)C3)C[C@H]1CC#N (some centres unmarked) [Compound I-39] | < 1 | < 0.25 | –
8 | C=C(F)C(=O)N1CCN(c2nc(OC[C@@H]3CCCN3CCOCCOCCOCCOCCOCCOCCOCCOCCOCCOCCOCCOCCc3cc(Cl)cc(NC(=O)NCc4ccc5c(c4)CN(C4CCC(=O)NC4=O)C5=O)c3)nc3c2CCN(c2cccc4cccc(Cl)c24)C3)C[C@@H]1CC#N (some centres unmarked) [Compound I-37] | > 10 | 0.25 to 5 | –

Other lines, results leading:

Row | GI50 [1] [µM] | DC50 ([2]; Table 3) [µM] | DC50 ([2]; Table 3A) [µM] | Compound
9 | > 10 | < 0.25 | – | C=CC(=O)N1CCN(c2nc(NCCCCCCCCc3cc(Cl)cc(NC(=O)NCc4ccc5c(c4)CN(C4CCC(=O)NC4=O)C5=O)c3)nc3c(F)c(-c4cc(O)cc5ccccc45)c(Cl)cc23)CC1 (centres unmarked) [Compound I-5, 1-[3-chloro-5-[8-[[6-chloro-8-fluoro-7-(3-hydroxy-1-naphthyl)-4-(4-prop-2-enoylpiperazin-1-yl)quinazolin-2-yl]amino]octyl]phenyl]-3-[[2-(2,6-dioxo-3-piperidyl)-1-oxo-isoindolin-5-yl]methyl]urea]
10 | 1 to 3 | 0.25 to 5 | – | C=C(F)C(=O)N1CCN(c2nc(OC[C@@H]3CCCN3CCOCCOCCOCCOCCOCCOCCOCCCCCc3cc(Cl)cc(NC(=O)NCc4ccc5c(c4)CN(C4CCC(=O)NC4=O)C5=O)c3)nc3c2CCN(c2cccc4cccc(Cl)c24)C3)C[C@@H]1CC#N (some centres unmarked) [Compound I-43]
11 | 3 to 10 | 0.25 to 5 | – | C=C(F)C(=O)N1CCN(c2nc(OC[C@@H]3CCCN3CCOCCOCCCCCCCCCCCCCCc3cc(Cl)cc(NC(=O)NCc4ccc5c(c4)CN(C4CCC(=O)NC4=O)C5=O)c3)nc3c2CCN(c2cccc4cccc(Cl)c24)C3)C[C@@H]1CC#N (some centres unmarked) [Compound I-48]
12 | > 10 | > 10 | – | C=CC(=O)N1CCN(c2nc(NCCCCCCCCNc3cccc4c3CN(C3CCC(=O)NC3=O)C4=O)nc3c(F)c(-c4cc(O)cc5ccccc45)c(Cl)cc23)CC1 (centres unmarked) [Compound I-6, 3-(4-((8-((4-(4-acryloylpiperazin-1-yl)-6-chloro-8-fluoro-7-(3-hydroxynaphthalen-1-yl)quinazolin-2-yl)amino)octyl)-amino)-1-oxoisoindolin-2-yl)piperidine-2,6-dione]
13 | < 1 | 0.25 to 5 | – | C=C(F)C(=O)N1CCN(c2nc(OC[C@@H]3CCCN3CCOCCOCCOCCOCCOCCCCCc3cc(Cl)cc(NC(=O)NCc4ccc5c(c4)CN(C4CCC(=O)NC4=O)C5=O)c3)nc3c2CCN(c2cccc4cccc(Cl)c24)C3)C[C@@H]1CC#N (some centres unmarked) [Compound I-54]
14 | > 10 | > 10 | – | C=CC(=O)N1CCN(c2nc(NCCOCCOCCOCCOCCOCCOCCOCCOCCOc3cc(Cl)cc(NC(=O)NCc4ccc5c(c4)CN(C4CCC(=O)NC4=O)C5=O)c3)nc3c(F)c(-c4cc(O)cc5ccccc45)c(Cl)cc23)CC1 (centres unmarked) [Compound I-13, 1-[3-chloro-5-[2-[2-[2-[2-[2-[2-[2-[2-[2-[[6-chloro-8-fluoro-7-(3-hydroxy-1-naphthyl)-4-(4-prop-2-enoylpiperazin-1-yl)quinazolin-2-yl]amino]ethoxy]ethoxy]ethoxy]ethoxy]ethoxy]ethoxy]ethoxy]ethoxy]ethoxy]phenyl]-3-[[2-(2,6-dioxo-3-piperidyl)-1-oxo-isoindolin-5-yl]methyl]urea]
15 | < 1 | < 0.25 | – | C=C(F)C(=O)N1CCN(c2nc(OC[C@@H]3CCCN3CCOCCOCCOCCOCCOCCOCCOCCOCCCCCCCCc3cc(Cl)cc(NC(=O)NCc4ccc5c(c4)CN(C4CCC(=O)NC4=O)C5=O)c3)nc3c2CCN(c2cccc4cccc(Cl)c24)C3)C[C@@H]1CC#N (some centres unmarked) [Compound I-38]
16 | < 1 | 0.25 to 5 | – | C=C(F)C(=O)N1CCN(c2nc(OC[C@@H]3CCCN3CCOCCOCCOCCOCCOCCOCCCCCCCCCCCCCCc3cc(Cl)cc(NC(=O)NCc4ccc5c(c4)CN(C4CCC(=O)NC4=O)C5=O)c3)nc3c2CCN(c2cccc4cccc(Cl)c24)C3)C[C@@H]1CC#N (some centres unmarked) [Compound I-50]
17 | > 10 | > 10 | – | C=CC(=O)N1CCN(c2nc(NCCOCCOCCOCCOCCOCCOCCOCCOCCc3cc(Cl)cc(NC(=O)NCc4ccc5c(c4)CN(C4CCC(=O)NC4=O)C5=O)c3)nc3c(F)c(-c4cc(O)cc5ccccc45)c(Cl)cc23)CC1 (centres unmarked) [Compound I-15, 1-[3-chloro-5-[2-[2-[2-[2-[2-[2-[2-[2-[2-[[6-chloro-8-fluoro-7-(3-hydroxy-1-naphthyl)-4-(4-prop-2-enoylpiperazin-1-yl)quinazolin-2-yl]amino]ethoxy]ethoxy]ethoxy]ethoxy]ethoxy]ethoxy]ethoxy]ethoxy]ethyl]phenyl]-3-[[2-(2,6-dioxo-3-piperidyl)-1-oxo-isoindolin-5-yl]methyl]urea]
18 | < 1 | < 0.25 | – | C=C(F)C(=O)N1CCN(c2nc(OC[C@@H]3CCCN3CCOCCOCCOCCOCCOCCOCCCCCCCCc3cc(Cl)cc(NC(=O)NCc4ccc5c(c4)CN(C4CCC(=O)NC4=O)C5=O)c3)nc3c2CCN(c2cccc4cccc(Cl)c24)C3)C[C@@H]1CC#N (some centres unmarked) [Compound I-41]
19 | > 10 | 5 to 10 | – | C=C(F)C(=O)N1CCN(c2nc(OC[C@@H]3CCCN3CCOCCOCCOCCOCCOCCOCCc3cc(Cl)cc(NC(=O)NCc4ccc5c(c4)CN(C4CCC(=O)NC4=O)C5=O)c3)nc3c2CCN(c2cccc4cccc(Cl)c24)C3)C[C@@H]1CC#N (stereo partly drawn) [Compound I-2, 1-(3-chloro-5-(20-((S)-2-(((7-(8-chloronaphthalen-1-yl)-4-((S)-3-(cyanomethyl)-4-(2-fluoroacryloyl)piperazin-1-yl)-5,6,7,8-tetrahydropyrido[3,4-d]pyrimidin-2-yl)oxy)methyl)pyrrolidin-1-yl)-3,6,9,12,15,18-hexaoxaicosyl)phenyl)-3-((2-(2,6-dioxopiperidin-3-yl)-1-oxoisoindolin-5-yl)methyl)urea]

Source: patent US20240238424A1, “HETEROBIFUNCTIONAL COMPOUNDS AND METHODS OF TREATING DISEASE” (Halda Therapeutics OpCo, Inc., priority 2021, published 2024)
